The values below come from patent publication US4612302A, “Clinical use of somatostatin analogues” (Brigham and Women's Hospital, priority 1983, dated 1986).

The test system of one experiment is phagocytes. Kind of experiment: Carbon clearance (colloidal carbon / India ink) from the blood of rats. Type of experiment: in vivo, female Spraque-Dawley rats. To be noted: for India ink (μl/ml blood) 3 min: 3 min after i.v. colloidal carbon; for India ink (μl/ml blood) 3 min / India ink (μl/ml blood) 6 min / India ink (μl/ml blood) 12 min / India ink (μl/ml blood) 24 min: 50 μg i.v. once daily for 3 days before carbon; for India ink (μl/ml blood) 6 min: 6 min after i.v. colloidal carbon; for India ink (μl/ml blood) 12 min: 12 min after i.v. colloidal carbon; for India ink (μl/ml blood) 24 min: 24 min after i.v. colloidal carbon; for Speed of action in carbon clearance compared with somatostatin: greater carbon clearance at 6 minutes than somatostatin; for Potency in carbon clearance compared with somatostatin: lower levels of carbon at the late time intervals. The protocol:
Rats were injected either with saline or with a colloidal carbon suspension, and the time required for clearing of colloidal particles from the blood stream was measured. In a comparative experiment, zymosan, an agent known to increase the activity or phagocytes, was administered instead of the somatostatin analogue. In rats which received injections of saline, the disappearance of colloidal carbon from the blood was virtually linear, an expected result based on previous studies by others. Administration of a somatostatin analogue markedly accelerated the carbon clearance, even more so than for somatostatin itself.
(§1) All of the experiments described below were performed in female Spraque-Dawley rats (ESS Laboratories, Lynnfield, Mass.) with an initial body weight of 150-180 g, and with unlimited access to Purina laboratory chow and tap water. Control and experimental groups consisted of 3-4 rats. Each experiment was repeated at least twice and the results were pooled. Analogue I is cyclo[L-Pro-Phe-D-Trp-Lys-Thr-L-Phe]. Analogue II is cyclo[L-Phe-Phe-L-Trp-Lys-Thr-D-Phe]. These are preferred compounds for all aspects of the invention. The compound can be synthesized according to the procedure described in Veber et al., Nature, 292, 55-58 (1981), which is herein incorporated by reference. Basically, the linear peptide is prepared by a solid phase technique, for example, using a Beckman 990 peptide synthesizer following the protocol described in Strachan et al, J. Med. Chem., 22, 586-588 (1979), which is herein incorporated by reference. The linear peptide can then be cyclized by the technique of Veber et al, Proc. Natl. Acad. Sci. USA, 75, 2636-2640 (1978), which is also herein incorporated by reference. Linear or cyclic somatostatin (Serono) or a somatostatin analogue was injected under mild ether anesthesia at 50 μg in 0.5 ml of saline into the jugular vein once daily for 3 consecutive days prior to injection with carbon. Control animals were injected with the same amount of saline. In all of the carbon clearance experiments, 0.1 ml/100 g of the supernatant of centrifuged (3000 rpm/15 min) colloidal carbon (Wagner's india ink) was injected i.v. under mild ether anesthesia. Blood samples (50 μl) were obtained with heparinized glass capillaries and by puncture of the retro-orbital venous plexus at 3, 6, 12 and 24 minutes after the administration of carbon. The blood samples were lysed in 2 ml of 0.1% Na2 CO3 solution and the quantity of carbon in the blood was measured.

Experiment [1] concerns liver injury induced by galactosamine. In words: Galactosamine-induced liver injury (hepatic necrosis and inflammation) in rats. Type of experiment: in vivo, female Spraque-Dawley rats. To be noted: 28 hr after galactosamine 1 g/kg i.p., somatostatin 250 μg, analogues 125 μg i.p.; for Liver histology (Scale: 0-4): scale 0-4, 4 = greatest damage. The protocol: as §1
The liver protection studies included the effect of somatostatin and analogues on liver injury induced by galactosamine or phalloidin. Galactosamine-induced hepatic necrosis and inflammation was produced by injecting rats with 1 g/kg of galactosamine i.p. at 0 hr. Regular somatostatin was injected at 250 μg, analogues at 125 μg i.p. at -30 and […]. The animals were killed at 28 hr after galactosamine. Liver damage was measured by the elevation of serum transaminase (SGOT) and by liver histology (scale: 0-4 with 4 indicating the greatest damage).

The subject of experiment [2] is liver injury induced by phalloidin. Kind of experiment: Phalloidin-induced liver and hepatic blood vessel lesions in rats. Type of experiment: in vivo. The following applies: phalloidin 0.12 mg per 100 g i.p. The protocol:
This toxin kills rats within about 4 hours after intraperitoneal injection. Rats injected with 0.12 mg phalloidin per 100 g body weight (i.p.) show a massive increase in liver size accompanied by hemorrhage. In a control group of rats given phalloidin but no somatostatin analogue, 22 of 24 rats died within 2-4 hours.
In both cases, rats were given saline (control), phalloidin alone, or phalloidin and a somatostatin analogue. Somatostatin analogues were given in subcutaneous injections in a solution of protamine sulfate and zinc chloride in order to prolong its effectiveness, or in normal saline.
In the biochemical experiments, the animals were also injected with Evans blue 15 min before autopsy. At autopsy the portal vein was perfused in situ with 20 ml of saline to remove blood from hepatic vaculature. Phalloidin caused a time dependent increase in the hepatic uptake of Evans blue, indicative of leakage of blood into the tissue through blood vessel lesions. Somatostatin analogue treatment virtually abolished this enhanced uptake of the dye. In the morphologic experiments, groups of rats were also injected with colloidal carbon (India ink, […] i.v.) 15 min before autopsy. At that time pieces of liver were processed for subsequent light or electron microscopic studies. […]

Non-standard residues stand in square brackets, D forms with d. Residues, ends and D or L forms follow the SMILES beside them. No end group written: not given here.

`C[C@@H](O)[C@@H]1NC(=O)[C@H](CCCCN)NC(=O)[C@@H](Cc2c[nH]c3ccccc23)NC(=O)[C@H](Cc2ccccc2)NC(=O)[C@@H]2CCCN2C(=O)[C@H](Cc2ccccc2)NC1=O` [Analogue I, cyclo[L-Pro-Phe-D-Trp-Lys-Thr-L-Phe]] (cyclo(PF[dW]KTF)): in the experiment with phagocytes, the “India ink (μl/ml blood) 3 min” value came out at 12.5 ± 3.0 μl/ml blood, the “India ink (μl/ml blood) 6 min” value stood at 6.9 ± 0.9 μl/ml blood, the “India ink (μl/ml blood) 12 min” value is recorded as 2.6 ± 0.7 μl/ml blood and the “India ink (μl/ml blood) 24 min” value stood at 2.4 ± 0.5 μl/ml blood. Also, in the experiment with phagocytes, the “Speed of action in carbon clearance compared with somatostatin” value was “faster acting” and the “Potency in carbon clearance compared with somatostatin” value is reported as “more potent than somatostatin”. Further, in experiment [1], the “SGOT (U/l)” value is listed as 573 ± 138 U/l and the “Liver histology (Scale: 0-4)” value is 1.1 ± 0.1.

Take `C[C@@H](O)[C@@H]1NC(=O)[C@H](CCCCN)NC(=O)[C@H](Cc2c[nH]c3ccccc23)NC(=O)[C@H](Cc2ccccc2)NC(=O)[C@H](Cc2ccccc2)NC(=O)[C@@H](Cc2ccccc2)NC1=O` [Analogue II, cyclo[L-Phe-Phe-L-Trp-Lys-Thr-D-Phe]] (cyclo(FFWKT[dF])): in the experiment on phagocytes, the “India ink (μl/ml blood) 3 min” value came to 13.2 ± 2.0 μl/ml blood, the “India ink (μl/ml blood) 6 min” value is reported as 5.6 ± 0.5 μl/ml blood, the “India ink (μl/ml blood) 12 min” value amounted to 3.2 ± 0.9 μl/ml blood and the “India ink (μl/ml blood) 24 min” value stood at 1.8 ± 0.2 μl/ml blood. In the experiment with phagocytes, the “Speed of action in carbon clearance compared with somatostatin” value was “faster acting” and the “Potency in carbon clearance compared with somatostatin” value is recorded as “more potent than somatostatin”. Further, in experiment [1], the “SGOT (U/l)” value came to 700 U/l and the “Liver histology (Scale: 0-4)” value is given as 1.0.

Regarding `C[C@H](N)C(=O)NCC(=O)N[C@H]1CSSC[C@@H](C(=O)O)NC(=O)[C@H](CO)NC(=O)[C@H]([C@@H](C)O)NC(=O)[C@H](Cc2ccccc2)NC(=O)[C@H]([C@@H](C)O)NC(=O)[C@H](CCCCN)NC(=O)[C@H](Cc2c[nH]c3ccccc23)NC(=O)[C@H](Cc2ccccc2)NC(=O)[C@H](Cc2ccccc2)NC(=O)[C@H](CC(N)=O)NC(=O)[C@H](CCCCN)NC1=O` [Regular linear somatostatin, somatostatin], in the experiment with phagocytes, the “India ink (μl/ml blood) 3 min” value was 11.7 ± 0.1 μl/ml blood, the “India ink (μl/ml blood) 6 min” value came to 11.9 ± 2.6 μl/ml blood, the “India ink (μl/ml blood) 12 min” value is recorded as 5.3 ± 1.4 μl/ml blood and the “India ink (μl/ml blood) 24 min” value amounted to 2.6 ± 0.1 μl/ml blood.

As for “somatostatin (AGCKNFFWKTFTSC; not fully specified (bridges); cysteine pairing not given here; UniProt P61278 103-116, looked up) [cyclic tetradecapeptide hormone, reference compound]”, in experiment [1], the “SGOT (U/l)” value turned out to be 1757 ± 681 U/l and the “Liver histology (Scale: 0-4)” value stood at 2.6 ± 0.3. Further, the “Histologic examination of the liver after phalloidin” value in experiment [2] was “milder vacuolization of hepatocytes and less congestion”. The “Mortality after phalloidin” value in experiment [2] (control 22 of 24 rats died) is recorded as “significantly smaller number of rats”.
